In patent US20240409558A1, “IRREVERSIBLE INHIBITORS OF KRAS” (BIOMEA FUSION, INC., priority 2021, published 2024) one finds IC50 data, which are given here for 26 compounds.

One assay deals with human KRAS G12C mutated cell line MIA PaCa-2. Description: Inhibition of proliferation of MIA PaCa-2 cells (CellTiter-Glo, 7 day). Conditions: 168 h, Table 2, CellTiter-Glo luminescence read on day 7, read-out: MIA PaCa-2 IC50. It is filed as cell-based. The method in brief: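 MIA PaCa-2 cells (RPMI-1640, 10% FBS) seeded at about 1000 cells/well; eight compound concentrations in duplicate added 2 h later, with media and compound refreshed on day 3. ATP-luminescence viability read on day 7 by CellTiter-Glo; % inhibition relative to 0.2% DMSO control.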
On the technique in general: ATP-based viability assays read luminescence as a measure of living cells.
As usually defined, the IC50 is the concentration needed to halve the response being measured. Consider `Oc1cc(Cl)c(C2CC2)c(-c2ccc3c(C4CC5CCC(C4)N5)nc(OCC45CCCN4CC(F)C5)nc3c2F)c1` (centres unmarked) [Compound 205], for which the concentration for half-maximal inhibition (IC50) was 0.358 µM.

The same assay, now with this note: 168 h, Table 3, 7 day, mean, read-out: MIA PaCa-2 IC50 (μM) 7 day Mean.
Regarding `C=CC(=O)N1C2CCC1CN(c1nc(OCC34CCCN3CCC4)nc3c(F)c(-c4cccc(Cl)c4C4CC4)ncc13)C2` [Compound 301, 1-[3-[7-(3-chloro-2-cyclopropyl-phenyl)-8-fluoro-2-(1,2,3,5,6,7-hexahydropyrrolizin-8-ylmethoxy)pyrido[4,3-d]pyrimidin-4-yl]-3,8-diazabicyclo[3.2.1]octan-8-yl]prop-2-en-1-one], the IC50 came to 0.16 µM.

Take `C=CC(=O)N1C2CCC1CN(c1nc(OC[C@@]34CCCN3C[C@H](F)C4)nc3c(F)c(-c4cc(O)cc5ccc(F)c(F)c45)ncc13)C2` [Compound 306, 1-[3-[7-(7,8-difluoro-3-hydroxy-1-naphthyl)-8-fluoro-2-[[(2R,8S)-2-fluoro-1,2,3,5,6,7-hexahydropyrrolizin-8-yl]methoxy]pyrido[4,3-d]pyrimidin-4-yl]-3,8-diazabicyclo[3.2.1]octan-8-yl]prop-2-en-1-one]: the IC50 turned out to be 0.0015 µM. On to `C=CC(=O)N1C2CCC1CN(c1nc(OC[C@@]34CCCN3C[C@H](F)C4)nc3cc(-c4cccc5cccc(Cl)c45)c(F)cc13)C2` [Compound 321, 1-[3-[7-(8-chloro-1-naphthyl)-6-fluoro-2-[[(2R,8S)-2-fluoro-1,2,3,5,6,7-hexahydropyrrolizin-8-yl]methoxy]quinazolin-4-y1]-3,8-diazabicyclo[3.2.1]octan-8-yl]prop-2-en-1-one], for which the concentration for half-maximal inhibition (IC50) is greater than 1 µM. On the same count and under the same terms, for `C=CC(=O)N1CCN(c2nc(OC[C@@]34CCCN3C[C@H](F)C4)nc3cc(-c4c(O)cccc4C4CC4)c(F)cc23)[C@H](C)C1` [Compound 325, 1-[(3R)-4-[7-(2-cyclopropyl-6-hydroxy-phenyl)-6-fluoro-2-[[(2R,8S)-2-fluoro-1,2,3,5,6,7-hexahydropyrrolizin-8-yl]methoxy]quinazolin-4-yl]-3-methyl-piperazin-1-yl]prop-2-en-1-one] the value was 0.0112 µM. Same read-out and setting: then `C#Cc1c(F)ccc2cccc(-c3ncc4c(N5CC6CCC(C5)N6C(=O)C=C)nc(OCC56CCCN5CCC6)nc4c3F)c12` [Compound 303, 1-[3-[7-(8-ethynyl-7-fluoro-1-naphthyl)-8-fluoro-2-(1,2,3,5,6,7-hexahydropyrrolizin-8-ylmethoxy)pyrido[4,3-d]pyrimidin-4-yl]-3,8-diazabicyclo[3.2.1]octan-8-yl]prop-2-en-1-one], with 0.0006 µM; and `C=CC(=O)N1C2CCC1CN(c1nc(OC[C@@]34CCCN3C[C@H](F)C4)nc3cc(-c4cc(O)cc(Cl)c4C4CC4)cnc13)C2` [Compound 309], with greater than 1 µM. Same read-out and setting: then `C=CC(=O)N1C2CCC1CN(c1nc(OC[C@@]34CCCN3C[C@H](F)C4)nc3c(F)c(N4CC(O)Cc5cccc(Cl)c54)ncc13)C2` (stereo partly drawn) [Compound 328, 1-[3-[7-(8-chloro-3-hydroxy-3,4-dihydro-2H-quinolin-1-yl)-8-fluoro-2-[[(2R,8S)-2-fluoro-1,2,3,5,6,7-hexahydropyrrolizin-8-yl]methoxy]pyrido[4,3-d]pyrimidin-4-yl]-3,8-diazabicyclo[3.2.1]octan-8-yl]prop-2-en-1-one], with greater than 1 µM; and `C=CC(=O)N1C[C@H]2C[C@@H]1CN2c1nc(OC[C@@]23CCCN2C[C@H](F)C3)nc2cc(-c3cccc4cccc(Cl)c34)c(F)cc12` [Compound 322, 1-[(1R,4R)-5-[7-(8-chloro-1-naphthyl)-6-fluoro-2-[[(2R,8S)-2-fluoro-1,2,3,5,6,7-hexahydropyrrolizin-8-yl]methoxy]quinazolin-4-y1]-2,5-diazabicyclo[2.2.1]heptan-2-yl]prop-2-en-1-one], with greater than 1 µM; and `C=CC(=O)N1C2CCC1CN(c1nc(OC[C@@]34CCCN3C[C@H](F)C4)nc3cc(-c4cc(O)cc(Cl)c4C4CC4)c(F)cc13)C2` [Compound 308, 1-[3-[7-(3-chloro-2-cyclopropyl-5-hydroxy-phenyl)-6-fluoro-2-[[(2R,8S)-2-fluoro-1,2,3,5,6,7-hexahydropyrrolizin-8-yl]methoxy]quinazolin-4-y1]-3,8-diazabicyclo[3.2.1]octan-8-yl]prop-2-en-1-one], with 0.0282 µM. With `C=CC(=O)N1CCN(c2nc(OC[C@@]34CCCN3C[C@H](F)C4)nc3cc(-c4c(O)cccc4C4CC4)cnc23)[C@H](C)C1` [Compound 320, 1-[(3R)-4-[7-(2-cyclopropyl-6-hydroxy-phenyl)-2-[[(2R,8S)-2-fluoro-1,2,3,5,6,7-hexahydropyrrolizin-8-yl]methoxy]pyrido[3,2-d]pyrimidin-4-yl]-3-methyl-piperazin-1-yl]prop-2-en-1-one], the IC50 is greater than 1 µM. Still for that read-out and setting: then `C=CC(=O)N1CCC(C)(c2nc(OC[C@@]34CCCN3C[C@H](F)C4)nc3c(F)c(-c4cc(O)cc(Cl)c4C4CC4)ncc23)CC1` [Compound 335], with 0.858 µM; and `C=CC(=O)N1C2CCC1CC(c1nc(OC[C@@]34CCCN3C[C@H](F)C4)nc3c(F)c(-c4cc(O)cc5ccc(F)c(F)c45)ncc13)C2` (some centres unmarked) [Compound 333], with 1.75 µM.

Consider `C=CC(=O)N1C2CCC1CN(c1nc(OC[C@@]34CCCN3C[C@H](F)C4)nc3c(F)c(-c4cc(O)cc(Cl)c4C4CC4)ncc13)C2` [Compound 302, 1-[3-[7-(3-chloro-2-cyclopropyl-5-hydroxy-phenyl)-8-fluoro-2-[[(2R,8S)-2-fluoro-1,2,3,5,6,7-hexahydropyrrolizin-8-yl]methoxy]pyrido[4,3-d]pyrimidin-4-yl]-3,8-diazabicyclo[3.2.1]octan-8-yl]prop-2-en-1-one], for which the IC50 was determined as 0.000287 µM.

Staying with this assay, now noted: 168 h, Table 4, 7 day, mean, read-out: MIA PaCa-2 IC50 (μM) 7 day Mean.
Consider `Oc1cc(Cl)c(C2CC2)c(-c2ccc3c(N4CC5CCC(C4)N5)cc(OC[C@@]45CCCN4C[C@H](F)C5)nc3c2F)c1` [Compound 429, 3-chloro-4-cyclopropyl-5-[4-(3,8-diazabicyclo[3.2.1]octan-3-yl)-8-fluoro-2-[[(2R,8S)-2-fluoro-1,2,3,5,6,7-hexahydropyrrolizin-8-y1]methoxy]-7-quinolyl]phenol], for which the IC50 was greater than 1 µM. With `Oc1cc(Cl)c(C2CC2)c(-c2ccc3c(N4CCNCC45CC5)nc(OC[C@@]45CCCN4C[C@H](F)C5)nc3c2F)c1` [Compound 425, 3-chloro-4-cyclopropyl-5-[4-(4,7-diazaspiro[2.5]octan-4-yl)-8-fluoro-2-[[(2R,8S)-2-fluoro-1,2,3,5,6,7-hexahydropyrrolizin-8-yl]methoxy]quinazolin-7-y1]phenol], the 50% inhibitory concentration (IC50) amounted to 0.607 µM. As for `Oc1cc(Cl)c(C2CC2)c(-c2cc3nc(OC[C@@]45CCCN4C[C@H](F)C5)nc(N4CCNCC45CC5)c3cc2F)c1` [Compound 412, 3-chloro-4-cyclopropyl-5-[4-(4,7-diazaspiro[2.5]octan-4-yl)-6-fluoro-2-[[(2R,8S)-2-fluoro-1,2,3,5,6,7-hexahydropyrrolizin-8-yl]methoxy]quinazolin-7-yl]phenol], the half-inhibitory concentration (IC50) is greater than 1 µM. The same measure, in the same setting: for `Oc1cc2cccc(-c3ncc4c(N5CC6CCC(C5)N6)nc(OC[C@@]56CCCN5C[C@H](F)C6)nc4c3F)c2c(F)c1F` [Compound 401, 5-[4-(3,8-diazabicyclo[3.2.1]octan-3-yl)-8-fluoro-2-[[(2R,8S)-2-fluoro-1,2,3,5,6,7-hexahydropyrrolizin-8-yl]methoxy]pyrido[4,3-d]pyrimidin-7-y1]-3,4-difluoro-naphthalen-2-ol] the value was greater than 1 µM; for `Oc1cc(Cl)c(C2CC2)c(-c2cnc3c(N4CCNCC45CC5)nc(OC[C@@]45CCCN4C[C@H](F)C5)nc3c2)c1` [Compound 414, 3-chloro-4-cyclopropyl-5-[4-(4,7-diazaspiro[2.5]octan-4-yl)-2-[[(2R,8S)-2-fluoro-1,2,3,5,6,7-hexahydropyrrolizin-8-yl]methoxy]pyrido[3,2-d]pyrimidin-7-yl]phenol], greater than 1 µM. Take `Fc1cc2c(N3CCNCC34CC4)nc(OC[C@@]34CCCN3C[C@H](F)C4)nc2cc1-c1cccc2cccc(Cl)c12` [Compound 408, 7-(8-chloro-1-naphthyl)-4-(4,7-diazaspiro[2.5]octan-4-yl)-6-fluoro-2-[[(2R,8S)-2-fluoro-1,2,3,5,6,7-hexahydropyrrolizin-8-yl]methoxy]quinazoline]: the concentration for half-maximal inhibition (IC50) is greater than 1 µM. For `C[C@H]1CC(c2nc(OC[C@@]34CCCN3C[C@H](F)C4)nc3c(F)c(-c4cc(O)cc5ccc(F)c(F)c45)ncc23)CCN1` (stereo partly drawn) [Compound 439, 5,6-difluoro-4-[8-fluoro-2-[[(2R,8S)-2-fluoro-1,2,3,5,6,7-hexahydropyrrolizin-8-yl]methoxy]-4-[(2S)-2-methyl-4-piperidyl]pyrido[4,3-d]pyrimidin-7-yl]naphthalen-2-ol], the IC50 was greater than 1 µM. The same measure, in the same setting: for `C[C@@H]1CNCCN1c1nc(OC[C@@]23CCCN2C[C@H](F)C3)nc2cc(-c3c(O)cccc3C3CC3)cnc12` [Compound 413] the value was greater than 1 µM; for `N#C[C@H]1CNCCN1c1nc(OC[C@@]23CCCN2C[C@H](F)C3)nc2c(F)c(-c3cc(O)cc(Cl)c3C3CC3)ccc12` [Compound 415, (2R)-1-[7-(3-chloro-2-cyclopropyl-5-hydroxy-phenyl)-8-fluoro-2-[[(2R,8S)-2-fluoro-1,2,3,5,6,7-hexahydropyrrolizin-8-yl]methoxy]quinazolin-4-y1]piperazine-2-carbonitrile], greater than 1 µM; for `Oc1cc(Cl)c(C2CC2)c(-c2cnc3c(N4C[C@H]5C[C@@H]4CN5)nc(OC[C@@]45CCCN4C[C@H](F)C5)nc3c2)c1` [Compound 406, 3-chloro-4-cyclopropyl-5-[4-[(1R,4R)-2,5-diazabicyclo[2.2.1]heptan-2-yl]-2-[[(2R,8S)-2-fluoro-1,2,3,5,6,7-hexahydropyrrolizin-8-yl]methoxy]pyrido[3,2-d]pyrimidin-7-yl]phenol], greater than 1 µM. On the same count and under the same terms, then `CC1(c2nc(OC[C@@]34CCCN3C[C@H](F)C4)nc3c(F)c(-c4cc(O)cc5ccc(F)c(F)c45)ncc23)CCNCC1` [Compound 444], with 6.74 µM; and `Oc1cc(Cl)c(C2CC2)c(-c2cnc3c(N4CCNC5(CC5)C4)nc(OC[C@@]45CCCN4C[C@H](F)C5)nc3c2)c1` [Compound 410], with greater than 1 µM.
